Consider eight compounds from patent publication US5424451A, “Process for preparing aminoalkylcarbamic esters of eseroline” (priority 1992, dated 1995).

Structures are written as SMILES. Where two headings read alike, the source gives them in different places.

In data set [1] the target is T1, acetylcholinesterase from electric eel (Electrophorus electricus, UniProt O42275).
T1 construct: purchased Sigma Chemical; host or cells: electric eel
Kind of data set: biochemical.

Data set [2] deals with patients. The settings on record: prior art, cited from earlier work; for Clinical effects in patients (in words): mental diseases / Alzheimer's disease.
The conditions of data set [3]: cited from earlier work.
For data set [4], the target named is T2, acetylcholinesterase from human red blood cells (Homo sapiens, UniProt P22303).
T2 construct: purchased Sigma Chemical; host or cells: human erythrocyte
T2 sequence (P22303 32-617 isoform P22303-2 limits assumed): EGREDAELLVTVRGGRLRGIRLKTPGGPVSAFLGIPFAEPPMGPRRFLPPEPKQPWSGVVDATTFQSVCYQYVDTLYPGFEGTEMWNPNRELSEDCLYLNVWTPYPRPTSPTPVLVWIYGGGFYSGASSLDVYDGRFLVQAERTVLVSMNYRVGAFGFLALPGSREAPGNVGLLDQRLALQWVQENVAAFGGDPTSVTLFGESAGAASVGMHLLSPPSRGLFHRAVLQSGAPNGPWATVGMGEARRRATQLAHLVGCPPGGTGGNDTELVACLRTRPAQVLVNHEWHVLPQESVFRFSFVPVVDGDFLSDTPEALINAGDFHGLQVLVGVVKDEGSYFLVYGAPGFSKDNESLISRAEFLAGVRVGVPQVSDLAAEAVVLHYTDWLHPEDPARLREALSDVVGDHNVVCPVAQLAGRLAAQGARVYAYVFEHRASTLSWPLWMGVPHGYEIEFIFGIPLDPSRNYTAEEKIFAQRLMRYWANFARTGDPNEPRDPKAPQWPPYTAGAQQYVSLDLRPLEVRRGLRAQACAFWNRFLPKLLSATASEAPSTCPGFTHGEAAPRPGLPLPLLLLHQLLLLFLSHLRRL
Briefly: Inhibition of acetylcholinesterase from human erythrocyte (Ellman colorimetric method). Type of data set: biochemical.

For data set [5] the following is noted: prior art; cited from earlier work.
Data set [6] deals with acetylcholinesterase. The settings on record: cited from earlier work.
In data set [7] the target is T3, butyrylcholinesterase from human serum (Homo sapiens, UniProt P06276).
T3 construct: purchased Sigma Chemical; host or cells: human serum
T3 sequence (P06276 29-602): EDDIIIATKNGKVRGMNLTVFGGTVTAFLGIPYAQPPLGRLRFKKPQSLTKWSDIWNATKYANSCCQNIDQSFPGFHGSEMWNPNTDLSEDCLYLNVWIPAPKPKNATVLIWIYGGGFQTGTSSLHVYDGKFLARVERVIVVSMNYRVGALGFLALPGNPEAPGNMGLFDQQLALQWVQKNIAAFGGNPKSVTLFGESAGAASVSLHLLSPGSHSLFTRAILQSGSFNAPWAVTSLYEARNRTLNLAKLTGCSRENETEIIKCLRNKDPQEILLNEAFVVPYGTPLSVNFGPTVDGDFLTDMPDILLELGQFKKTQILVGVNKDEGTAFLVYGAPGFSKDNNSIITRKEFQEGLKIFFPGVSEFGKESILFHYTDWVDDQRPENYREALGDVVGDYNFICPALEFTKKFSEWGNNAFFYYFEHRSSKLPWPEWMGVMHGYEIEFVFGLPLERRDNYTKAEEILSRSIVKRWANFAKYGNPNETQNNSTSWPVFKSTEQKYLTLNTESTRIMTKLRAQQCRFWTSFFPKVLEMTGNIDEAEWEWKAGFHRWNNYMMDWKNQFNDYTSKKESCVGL
Kind of data set: Inhibition of butyrylcholinesterase from human serum (Ellman colorimetric method). Type of data set: biochemical.

The target in data set [8] is T4, acetylcholinesterase from homogenate of in toto rat brain (Rattus norvegicus, UniProt P37136).
T4 construct: acetylcholinesterase from homogenate of in toto rat brain; from tissue; host or cells: rat whole brain homogenate
T4 sequence (P37136 32-614): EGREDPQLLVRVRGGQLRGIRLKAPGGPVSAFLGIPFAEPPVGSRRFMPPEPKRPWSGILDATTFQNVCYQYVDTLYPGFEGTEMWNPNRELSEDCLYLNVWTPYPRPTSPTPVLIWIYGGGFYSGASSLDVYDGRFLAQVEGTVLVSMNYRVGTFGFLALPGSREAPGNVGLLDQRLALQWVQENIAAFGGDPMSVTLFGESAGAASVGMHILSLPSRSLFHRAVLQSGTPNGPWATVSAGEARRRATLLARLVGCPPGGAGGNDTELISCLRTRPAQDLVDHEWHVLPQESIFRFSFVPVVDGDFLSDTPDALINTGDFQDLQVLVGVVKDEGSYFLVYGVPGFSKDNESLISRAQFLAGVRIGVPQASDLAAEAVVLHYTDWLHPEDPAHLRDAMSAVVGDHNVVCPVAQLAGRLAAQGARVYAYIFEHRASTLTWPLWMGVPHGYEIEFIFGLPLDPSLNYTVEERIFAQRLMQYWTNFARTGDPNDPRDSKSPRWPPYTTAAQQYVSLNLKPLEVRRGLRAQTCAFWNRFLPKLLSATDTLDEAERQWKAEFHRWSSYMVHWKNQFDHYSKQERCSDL
Kind of data set: Inhibition of acetylcholinesterase from rat brain homogenate. Particulars: contact time 10'; read-out: Cholinesterase Inhibition IC50, AChE rat brain. Type of data set: biochemical. The text has this:
The compounds prepared as per the Examples reported above and several other compounds under the present invention (Table 1) were pharmacologically tested with a view to determining their inhibitory effect on acetylcholinesterase and butyrylcholinesterase activity. The used method had been developed by Ellman et al. (Ellman, G. L., Courtney, K. D., Andres, V., Featherstone, R. M.: "A New and Rapid Colorimetric Determination of Acetylcholinesterase Activity", Biochem. Pharm. 7, 88, 1961).
AChE rat brain: acetylcholinesterase from homogenate of in toto rat brain
t: contact time (minutes)
IC50 M: median inhibitory molar concentration

Data set [9] can be described thus: in vivo. Particulars: rat, po.
The mark [10] stands for this setting: Cholinesterase Inhibition IC50, AChE E.eel, contact time 10'.
The mark [11] stands for this setting: Cholinesterase Inhibition IC50, AChE hRBC, contact time 30'.
Where [12] appears, read: contact time 10', read-out: Cholinesterase Inhibition IC50, AChE hRBC.
Where [13] appears, read: Cholinesterase Inhibition IC50, AChE hRBC, contact time 60'.

T1 sequence (O42275 24-633): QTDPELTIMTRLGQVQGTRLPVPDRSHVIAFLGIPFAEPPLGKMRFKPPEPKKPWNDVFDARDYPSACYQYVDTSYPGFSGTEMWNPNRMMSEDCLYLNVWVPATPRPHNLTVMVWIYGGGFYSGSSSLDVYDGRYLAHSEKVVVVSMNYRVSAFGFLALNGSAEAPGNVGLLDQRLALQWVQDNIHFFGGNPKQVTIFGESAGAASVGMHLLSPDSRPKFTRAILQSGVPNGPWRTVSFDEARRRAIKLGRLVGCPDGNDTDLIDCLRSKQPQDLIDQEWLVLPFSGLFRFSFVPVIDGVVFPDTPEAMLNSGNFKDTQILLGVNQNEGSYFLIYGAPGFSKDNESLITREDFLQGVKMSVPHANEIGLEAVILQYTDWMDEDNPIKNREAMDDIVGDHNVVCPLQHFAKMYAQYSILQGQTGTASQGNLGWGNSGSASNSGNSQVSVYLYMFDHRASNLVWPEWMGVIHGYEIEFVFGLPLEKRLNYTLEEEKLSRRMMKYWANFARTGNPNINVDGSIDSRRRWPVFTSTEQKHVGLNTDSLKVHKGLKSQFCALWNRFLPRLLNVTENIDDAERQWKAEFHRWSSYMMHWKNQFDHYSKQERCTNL

Regarding `CCCCCCCNC(=O)Oc1ccc2c(c1)[C@]1(C)CCN(C)[C@@H]1N2C` [MF 201, heptylcarbamic ester of eseroline, reference compound], the IC50 in data set [1] (contact time 10', read-out: Cholinesterase Inhibition IC50, AChE E.eel) came out at 550 nM; in data set [1] (contact time 30', read-out: Cholinesterase Inhibition IC50, AChE E.eel) it was 410 nM; in data set [1] (contact time 60', read-out: Cholinesterase Inhibition IC50, AChE E.eel) it was 440 nM; in [4] (read-out: Cholinesterase Inhibition IC50, AChE hRBC), 290 nM; in data set [7] it was 40 nM. In data set [2] (clinical pilot test, Alzheimer's disease), the “Neutropenia in patients (in words)” value is “neutropenia phenomena in some, though very few, patients”. The “Clinical effects in patients (in words)” value in data set [2] is on record as “good results in a clinical pilot test on patients affected by Alzheimer's disease”. For the same compound, the “Side effects, prior art (in words)” value in data set [3] is recorded as “reduced side effects”. The “Pharmacokinetic properties (in words)” value in data set [5] is “better pharmacokinetic properties”. Further, the “Acetylcholinesterase inhibition, prior art (in words)” value (from here on “Acetylcholinesterase inhibition”) in data set [6] is recorded as “less potent acetylcholinesterase inhibitor than physostigmine”.
Consider `CN1CC[C@@]2(C)c3cc(OC(=O)NCCCCCCCN4CCOCC4)ccc3N(C)[C@@H]12` [MF 224, N-morpholinylheptylcarbamoyleseroline], for which the IC50 in data set [8] amounted to 4.1 µM; in data set [1] (setting [10]), 1600 nM; in data set [4] (setting [11]), 170 nM; in data set [4] (setting [12]) it was 380 nM; in [7], 300 nM.
Turning to `CN1CC[C@@]2(C)c3cc(OC(=O)NCCCCCN4CCOCC4)ccc3N(C)[C@@H]12` [MF 225, N-morpholinylpentylcarbamoyleseroline], the IC50 in [8] was found to be 500 µM; in [1] (setting [10]) it was 330000 nM; in data set [4] (setting [11]) it was 2200 nM; in data set [4] (setting [12]) it was 7600 nM.
For `CN1CC[C@@]2(C)c3cc(OC(=O)NCCCCCCCCN4CCOCC4)ccc3N(C)[C@@H]12` [MF 217, N-morpholinyloctylcarbamoyleseroline], the IC50 was 0.88 µM in [8]; 330 nM in data set [1] (setting [10]); 100 nM in [4] (Cholinesterase Inhibition IC50, AChE hRBC, contact time 10'); 76 nM in data set [4] (setting [11]); 63 nM in [4] (setting [13]); 170 nM in data set [7]. This compound came in with an LD50 in [9] of 23 mg/kg. In [4] (Table 2 results), the “Activity against human red blood cells acetylcholinesterase (in words)” value is “Particularly active”.
Take `CNC(=O)Oc1ccc2c(c1)[C@]1(C)CCN(C)[C@@H]1N2C` [ESERINE, physostigmine]: the “Clinical effects in patients (in words)” value in data set [2] is “beneficial effects on patients affected by mental diseases”. Besides, the LD50 in data set [9] came to 4.5 mg/kg. Further, the “Pharmacokinetic properties (in words)” value in data set [5] is “unfavourable pharmacokinetic properties”. Besides, the “Acetylcholinesterase inhibition” value in [6] was “potent natural inhibitor of acetylcholinesterase”.
Consider `CN1CC[C@@]2(C)c3cc(OC(=O)NCCCCCCCCCCCCN4CCOCC4)ccc3N(C)[C@@H]12` [MF 228, N-morpholinyldodecylcarbamoyleseroline], for which the IC50 in data set [8] is 0.38 µM; in data set [1] (setting [10]) it was 70 nM; in data set [4] (setting [11]), 60 nM; in [4] (setting [13]), 30 nM; in data set [4] (setting [12]), 70 nM; in data set [7], 100 nM.
Turning to `CN1CC[C@@]2(C)c3cc(OC(=O)NCCCCCCN4CCOCC4)ccc3N(C)[C@@H]12` [MF 227, N-morpholinylhexylcarbamoyleseroline], the IC50 is 8.2 µM in [8]; 12000 nM in data set [1] (setting [10]); 380 nM in [4] (setting [11]); 930 nM in data set [4] (setting [12]); 100 nM in [7].
`CN1CC[C@@]2(C)c3cc(OC(=O)N4CCOCC4)ccc3N(C)[C@@H]12` [MF 215, reference compound]: the “Activity compared with the compounds of this invention (in words)” value in data set [4] (compared with the compounds of this invention) is reported as “much lower activity”. Further, the IC50 in [4] (read-out: Cholinesterase Inhibition IC50, AChE hRBC, contact time 10') was found to be 19000 nM; in data set [4] (read-out: Cholinesterase Inhibition IC50, AChE hRBC, contact time 30') it was 12000 nM; in data set [4] (read-out: Cholinesterase Inhibition IC50, AChE hRBC, contact time 60'), 16000 nM; in data set [7] (read-out: Cholinesterase Inhibition IC50, BuChE hserum, contact time 10'), 870000 nM. In data set [6], the “Acetylcholinesterase inhibition” value is “low acetylcholinesterase activity depression”.
